Reference: patent publication US20240382552A1, “COMPOSITION FOR PREVENTING, AMELIORATING OR TREATING SLEEP DISORDER OR INSOMNIA, CONTAINING EXTRACT OF ROASTED CITRUS BYPRODUCT AS ACTIVE INGREDIENT” (priority 2021, published 2024)
Where a name gives a salt, the structure may show the parent alone. Marks after values point to notes of the source that are not given here.

How the values were obtained:
C57BL/6N mice = experiment: Sleep architecture analysis (EEG/EMG); format: in vivo; settings: Example 1 100 mg/kg, Example 2 300 mg/kg, zolpidem 10 mg/kg p.o.
Protocol: After the accommodation period of 1 week, electrodes were inserted into the
C57BL/6N mice for measurement of electroencephalograms (EEGs) and electromyograms (EMGs). After anesthetizing the mouse with pentobarbital (50 mg/kg, i.p.), the head was fixed in a stereotaxic instrument. After incising the subcutaneous connective tissue, a mouse EEG/EMG Headmount (Pinnacle Technology Inc, Oregon, USA) was inserted for EEG and EMG recording. After fixing with dental cement followed by suturing and disinfection, antibiotics were injected for 3 days to prevent inflammation. The mice were allowed to recover for 7 days. For accommodation to the measurement environment, the recording apparatus was connected from 4 days prior to the measurement. After orally administering the sample and waiting for 5 minutes for sedation, EEG and EMG were recorded for 24 hours from 17:00 using PAL-8200 (Pinnacle Technology Inc., Oregon, USA). Sampling rate was set at 200 Hz (epoch time: 10 s). Filtering range was 0.1-25 Hz for EEG and 10-100 Hz for EMG. Sleep architecture was analyzed according to the fast Fourier transform (FFT) algorithm using SleepSign (Ver. 3.0, Kissei Comtec, Nagono, Japan).
Sleep architecture analysis was conducted to evaluate the effect of the roasted citrus byproduct extracts according to an exemplary embodiment of the present disclosure on the quantity and quality of sleep. […]

[1] = tested on: mice to which a sleeping dose of pentobarbital (45 mg/kg, i.p.) was administered; experiment: Pentobarbital-induced sleep test; settings: pentobarbital 45 mg/kg i.p. 45 min after oral sample; DH 30 mg/kg, lime extracts 100 mg/kg, lemon extracts 300 mg/kg; n=10

Cc1ccc(-c2nc3ccc(C)cn3c2CC(=O)N(C)C)cc1 [zolpidem]
delta activity during non-REM sleep (C57BL/6N mice): significantly decreased delta activity | time after oral administration for which NREM sleep was significantly increased (C57BL/6N mice; 24 h EEG recording): 6 h

CN(C)CCC=C1c2ccccc2COc2ccccc21 [Doxepin hydrochloride (DH), Doxepin hydrochloride]
Sleep duration (min) [1]: 121.2*** min | Sleep latency (min) [1]: 2.9*** min
